Data as given in ChEMBL document CHEMBL4480432, “Expansion of a novel lead targeting M. tuberculosis DHFR as antitubercular agents” (Bioorg Med Chem, 2019).
Converted amounts (≈) assume the structure as drawn.

Columns and labels:
[1] = Sub-acute toxicity in albino Wistar rat assessed as mortality at 1.25 to 10 mg/kg, po administered for 28 days; format: organism-based; settings: in vivo, 672 h
[2] = Sub-acute toxicity in albino Wistar rat assessed as change in Urea level at 10 mg/kg, po administered for 28 days measured post last dose (reference value: 24.54 +/- 2.12 mg/dl); format: organism-based; settings: in vivo, 672 h
[3] = Sub-acute toxicity in albino Wistar rat assessed as change in serum protein level at 5 mg/kg, po administered for 28 days measured post last dose (reference value: […]); format: organism-based; settings: in vivo, 672 h
[4] = Sub-acute toxicity in albino Wistar rat assessed as change in Urea level at 2.5 mg/kg, po administered for 28 days measured post last dose (reference value: 24.54 +/- 2.12 mg/dl); format: organism-based; settings: in vivo, 672 h
[5] = Sub-acute toxicity in albino Wistar rat assessed as change in ALT level at 1.25 mg/kg, po administered for 28 days measured post last dose (reference value: 12.19 +/- 1.78 U/L); format: organism-based; settings: in vivo, 672 h
[6] = Sub-acute toxicity in albino Wistar rat assessed as change in ALT level at 5 mg/kg, po administered for 28 days measured post last dose (reference value: 12.19 +/- 1.78 U/L); format: organism-based; settings: in vivo, 672 h
[7] = Sub-acute toxicity in albino Wistar rat assessed as convulsion at 1.25 to 10 mg/kg, po administered for 28 days; format: organism-based; settings: in vivo, 672 h
[8] = Sub-acute toxicity in albino Wistar rat assessed as change in AST level at 1.25 mg/kg, po administered for 28 days measured post last dose (reference value: 22.5 +/- 1.76 U/L); format: organism-based; settings: in vivo, 672 h
[9] = Sub-acute toxicity in albino Wistar rat assessed as change in CAT level per mg protein at 1.25 mg/kg, po administered for 28 days measured post last dose (reference value: 28.45 +/- 2.1 U); format: organism-based; settings: in vivo, 672 h
[10] = Sub-acute toxicity in albino Wistar rat assessed as effect on behavioral changes at 1.25 to 10 mg/kg, po administered for 28 days; format: organism-based; settings: in vivo, 672 h
[11] = Sub-acute toxicity in albino Wistar rat assessed as change in Urea level at 5 mg/kg, po administered for 28 days measured post last dose (reference value: 24.54 +/- 2.12 mg/dl); format: organism-based; settings: in vivo, 672 h
[12] = Sub-acute toxicity in albino Wistar rat assessed as effect on eyes at 1.25 to 10 mg/kg, po administered for 28 days; format: organism-based; settings: in vivo, 672 h
[13] = Sub-acute toxicity in albino Wistar rat assessed as diarrhea at 1.25 to 10 mg/kg, po administered for 28 days; format: organism-based; settings: in vivo, 672 h
[14] = Sub-acute toxicity in albino Wistar rat assessed as change in SOD level per mg protein at 2.5 mg/kg, po administered for 28 days measured post last dose (reference value: 4.85 +/- 0.34 U); format: organism-based; settings: in vivo, 672 h
[15] = Sub-acute toxicity in albino Wistar rat assessed as effect on skin at 1.25 to 10 mg/kg, po administered for 28 days; format: organism-based; settings: in vivo, 672 h
[16] = tested on: Mycobacterium tuberculosis; test: microbe, parasite or virus in culture; settings: H37Rv ATCC 27294, 168 h
Description: Antitubercular activity against Mycobacterium tuberculosis H37Rv ATCC 27294 after 7 days by microplate alamar blue method

[17] = Sub-acute toxicity in albino Wistar rat assessed as change in hemoglobin level at 1.25 mg/kg, po administered for 28 days measured post last dose (reference value: 12.14 +/- 1.45 g%); format: organism-based; settings: in vivo, 672 h
[18] = Sub-acute toxicity in albino Wistar rat assessed as change in colour at 1.25 to 10 mg/kg, po administered for 28 days; format: organism-based; settings: in vivo, 672 h
[19] = Sub-acute toxicity in albino Wistar rat assessed as effect on clinical changes at 1.25 to 10 mg/kg, po administered for 28 days; format: organism-based; settings: in vivo, 672 h
[20] = Sub-acute toxicity in albino Wistar rat assessed as change in hemoglobin level at 5 mg/kg, po administered for 28 days measured post last dose (reference value: 12.14 +/- 1.45 g%); format: organism-based; settings: in vivo, 672 h
[21] = Sub-acute toxicity in albino Wistar rat assessed as effect on water intake at 1.25 to 10 mg/kg, po administered for 28 days measured post last dose; format: organism-based; settings: in vivo, 672 h
[22] = Sub-acute toxicity in albino Wistar rat assessed as lethargy at 1.25 to 10 mg/kg, po administered for 28 days; format: organism-based; settings: in vivo, 672 h
[23] = Sub-acute toxicity in albino Wistar rat assessed as change in MDA level per mg protein at 1.25 mg/kg, po administered for 28 days measured post last dose (reference value: 0.91 +/- 0.1 nmol); format: organism-based; settings: in vivo, 672 h
[24] = Sub-acute toxicity in albino Wistar rat assessed as coma at 1.25 to 10 mg/kg, po administered for 28 days; format: organism-based; settings: in vivo, 672 h
[25] = Sub-acute toxicity in albino Wistar rat assessed as change in serum protein level at 10 mg/kg, po administered for 28 days measured post last dose (reference value: […]); format: organism-based; settings: in vivo, 672 h
[26] = Sub-acute toxicity in albino Wistar rat assessed as effect on food intake at 1.25 to 10 mg/kg, po administered for 28 days measured post last dose; format: organism-based; settings: in vivo, 672 h
[27] = Sub-acute toxicity in albino Wistar rat assessed as change in AST level at 10 mg/kg, po administered for 28 days measured post last dose (reference value: 25 +/- 1.76 U/L); format: organism-based; settings: in vivo, 672 h
[28] = Sub-acute toxicity in albino Wistar rat assessed as change in ALT level at 10 mg/kg, po administered for 28 days measured post last dose (reference value: 12.19 +/- 1.78 U/L); format: organism-based; settings: in vivo, 672 h
[29] = Sub-acute toxicity in albino Wistar rat assessed as change in SOD level per mg protein at 1.25 mg/kg, po administered for 28 days measured post last dose (reference value: 4.85 +/- 0.34 U); format: organism-based; settings: in vivo, 672 h
[30] = Sub-acute toxicity in albino Wistar rat assessed as change in SOD level per mg protein at 10 mg/kg, po administered for 28 days measured post last dose (reference value: 4.85 +/- 0.34 U); format: organism-based; settings: in vivo, 672 h
[31] = Sub-acute toxicity in albino Wistar rat assessed as change in autonomic nervous system at 1.25 to 10 mg/kg, po administered for 28 days; format: organism-based; settings: in vivo, 672 h
[32] = Sub-acute toxicity in albino Wistar rat assessed as salivation at 1.25 to 10 mg/kg, po administered for 28 days; format: organism-based; settings: in vivo, 672 h
[33] = Sub-acute toxicity in albino Wistar rat assessed as change in AST level at 5 mg/kg, po administered for 28 days measured post last dose (reference value: 25 +/- 1.76 U/L); format: organism-based; settings: in vivo, 672 h
[34] = Sub-acute toxicity in albino Wistar rat assessed as change in serum protein level at 2.5 mg/kg, po administered for 28 days measured post last dose (reference value: […]); format: organism-based; settings: in vivo, 672 h
[35] = Sub-acute toxicity in albino Wistar rat assessed as change in Urea level at 1.25 mg/kg, po administered for 28 days measured post last dose (reference value: 24.54 +/- 2.12 mg/dl); format: organism-based; settings: in vivo, 672 h
[36] = Sub-acute toxicity in albino Wistar rat assessed as change in MDA level per mg protein at 2.5 mg/kg, po administered for 28 days measured post last dose (reference value: 0.91 +/- 0.1 nmol); format: organism-based; settings: in vivo, 672 h

CC(=O)c1c(C)n(Cc2ccccc2)c2ccc(OCc3cn(-c4ccc(Br)cc4)nn3)cc12
Activity [1]: Non-Toxic
Activity [2]: 27.54 mg/dL
Activity [3]: 7.54 mg/dL
Activity [4]: 26.54 mg/dL
Activity [5]: 13.09 U/L
Activity [6]: 14.32 U/L
Activity [7]: Non-Toxic
Activity [8]: 23.43 U/L
Activity [9]: 29.34 U
Activity [10]: Non-Toxic
Activity [11]: 26.43 mg/dL
Activity [12]: Non-Toxic
Activity [13]: Non-Toxic
Activity [14]: 5.01 U
Activity [15]: Non-Toxic
MIC [16]: 3.03 µM (≈ 1.56 µg/mL)
Activity [17]: 12.12 g%
Activity [18]: Non-Toxic
Activity [19]: Non-Toxic
Activity [20]: 13.45 g%
Activity [21]: Non-Toxic
Activity [22]: Non-Toxic
Activity [23]: 0.95 nmol
Activity [24]: Non-Toxic
Activity [25]: 7.76 mg/dL
Activity [26]: Non-Toxic
Activity [27]: 26.98 U/L
Activity [28]: 15.23 U/L
Activity [29]: 4.95 U
Activity [30]: 5.56 U
Activity [31]: Non-Toxic
Activity [32]: Non-Toxic
Activity [33]: 26.75 U/L
Activity [34]: 7.32 mg/dL
Activity [35]: 25.12 mg/dL
Activity [36]: 1.05 nmol
